Results as given in patent US11945799B2, “4-ethynylpyridine derivatives useful as GCN2 inhibitors” (IP2IPO INNOVATIONS LIMITED, priority 2020, dated 2024).
Read-outs that look alike come from different tables or passages of the source.

Tests used:
[1] = Kinetic solubility in PBS buffer pH 7.4; assay type: physicochemical; conditions: for solubility kinetic at 90 min: aqueous buffer, kinetic from dmso stock, PBS buffer pH 7.4, 90 minutes at room temperature, from 10 mM DMSO stock
Method: The kinetic solubility assay investigates a solubility based on the amount of material which remains in solution after a precipitation process. […] Assay is performed using Multiscreen Vacuum Manifold. A buffer of interest (in standard protocol PBS buffer at pH=7.4 is used) is spiked with stock solution and incubated for 90 minutes at room temperature. After that time solution/suspension is filtrated. The concentration of each compound is determined on the base of prepared calibration curve using UV-VIS spectrophotometry method. The assay is made in triplicate.
Buffer of interest: 0.24 g of KH2PO4, 1.44 g of Na2HPO4, 0.2 g of KCl and 8 g NaCl and dissolve in 1 L distilled H2O; adjust pH to appropriate value (pH 7.4). 190 μl of buffer of interest was dispensed into the wells of a 96 well filter plate, followed by 10 μl of compound (10 mM stock solution in DMSO). The plate was shaken gently at room temperature for 90 minutes at 500 rpm using a BioSan, Plate Shaker-Thermostat, PST-60 HL-4. After 90 minutes, the plate was filtered using a vacuum manifold and vacuum pump. 100 μl of each filtrate and 100 μl acetonitrile was transferred to a 96 well UV-visible light transparent plate and the UV-visible absorption spectrum was measured using a Biotek Synergy 2 multiplate reader from 250-500 nm, interval range 10 nm. The amount of test compound was calculated using a calibration curve prepared by serial dilution of compounds in equivalent amounts of DMSO and acetonitrile.

[2] = molecular target: T1, full-length human GCN2 enzyme (Homo sapiens, UniProt Q9P2K8); test: GCN2 enzyme inhibition, LanthaScreen TR-FRET Kinase Activity assay (10 μM and 300 μM ATP); assay type: biochemical; conditions: for IC50 / Ki: mean of replicate assays
T1 construct: purchased Carna Bioscience
T1 sequence (Q9P2K8 whole entry): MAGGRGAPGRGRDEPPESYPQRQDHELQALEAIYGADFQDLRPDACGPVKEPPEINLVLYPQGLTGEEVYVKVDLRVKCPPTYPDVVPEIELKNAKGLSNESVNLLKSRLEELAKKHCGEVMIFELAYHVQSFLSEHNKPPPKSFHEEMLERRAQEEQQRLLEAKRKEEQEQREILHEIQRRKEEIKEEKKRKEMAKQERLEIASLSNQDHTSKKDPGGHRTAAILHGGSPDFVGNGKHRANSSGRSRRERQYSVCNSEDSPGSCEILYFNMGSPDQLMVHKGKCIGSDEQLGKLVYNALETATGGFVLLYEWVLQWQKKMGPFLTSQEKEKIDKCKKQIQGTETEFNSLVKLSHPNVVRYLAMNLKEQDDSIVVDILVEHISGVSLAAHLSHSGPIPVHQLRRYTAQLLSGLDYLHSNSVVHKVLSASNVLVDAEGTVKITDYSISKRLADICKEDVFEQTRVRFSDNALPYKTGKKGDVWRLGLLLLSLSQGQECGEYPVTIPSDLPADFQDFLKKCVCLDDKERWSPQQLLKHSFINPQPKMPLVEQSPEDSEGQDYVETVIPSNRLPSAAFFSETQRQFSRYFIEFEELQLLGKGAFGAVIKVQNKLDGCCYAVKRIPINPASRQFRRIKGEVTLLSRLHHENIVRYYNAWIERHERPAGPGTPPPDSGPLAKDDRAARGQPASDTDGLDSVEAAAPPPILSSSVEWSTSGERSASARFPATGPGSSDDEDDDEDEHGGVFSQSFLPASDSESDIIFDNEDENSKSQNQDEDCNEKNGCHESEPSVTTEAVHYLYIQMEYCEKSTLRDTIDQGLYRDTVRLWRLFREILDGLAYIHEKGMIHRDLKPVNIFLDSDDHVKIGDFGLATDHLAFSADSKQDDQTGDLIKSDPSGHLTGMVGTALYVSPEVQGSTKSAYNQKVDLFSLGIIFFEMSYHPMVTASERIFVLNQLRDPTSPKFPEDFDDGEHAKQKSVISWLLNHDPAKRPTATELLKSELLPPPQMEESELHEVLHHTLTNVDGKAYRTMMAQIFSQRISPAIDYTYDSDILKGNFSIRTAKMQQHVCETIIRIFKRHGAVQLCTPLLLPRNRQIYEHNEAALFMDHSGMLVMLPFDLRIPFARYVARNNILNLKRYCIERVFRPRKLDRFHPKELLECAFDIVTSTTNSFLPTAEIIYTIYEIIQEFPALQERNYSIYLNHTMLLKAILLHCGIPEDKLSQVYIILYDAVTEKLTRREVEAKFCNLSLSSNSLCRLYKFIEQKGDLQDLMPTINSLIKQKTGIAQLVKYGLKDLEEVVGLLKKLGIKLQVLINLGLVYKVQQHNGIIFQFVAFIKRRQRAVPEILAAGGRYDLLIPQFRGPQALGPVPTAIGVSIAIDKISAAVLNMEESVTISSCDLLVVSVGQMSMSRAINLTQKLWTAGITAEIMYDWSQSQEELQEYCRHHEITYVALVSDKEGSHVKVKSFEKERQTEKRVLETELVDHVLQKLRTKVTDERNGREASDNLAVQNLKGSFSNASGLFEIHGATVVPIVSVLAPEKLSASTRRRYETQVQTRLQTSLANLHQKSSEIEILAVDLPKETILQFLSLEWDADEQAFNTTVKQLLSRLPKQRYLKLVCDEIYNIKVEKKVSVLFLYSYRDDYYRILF
Method: Biological and Pharmacokinetic Testing (a) GCN2 Enzyme Inhibition (10 μM and 300 μM Assays) Assay Protocol Overview:
The inhibitory activity of the Example compounds towards GCN2 enzyme was measured according to the description below, using a LanthaScreen TR-FRET (Time Resolved Fluorescence Resonance Energy Transfer) Kinase Activity assay distributed by ThermoFisher Scientific.
The full-length human GCN2 enzyme (UniProt accession number Q9P2K8) was used for all experiments (Carna Bioscience). The TR-FRET pair was composed of GFP-eIF2α and LanthaScreen Terbium-labeled anti-peIF2α (pSer52) Antibody.
Each example compound was dissolved in DMSO (0.15 mM) and dispensed in a 384-well plate by a D300 dispenser (Tecan) to a final concentration range 3000-0.13 nM using the logarithmic dilution mode in 2 replicates. Full inhibition (3000 nM commercial reference inhibitor) and DMSO vehicle control wells were also included on the same plate. All volumes were normalized to the final DMSO concentration of 2% of the reaction volume. Next, 5 μL of H2O was added to each well of the plate.
The enzyme mixture was prepared to obtain the following concentrations: • GCN2—30 nM • unloaded tRNA—0.3 nM • HEPES (pH=7.0)—100 mM • MgCl2—20 mM; MnCl2—10 mM
The mixture was applied by adding 5 μL to each well of the plate. The enzyme and the tested compound were then incubated at room temperature for 20 min while shaking at 450 rpm.
The substrate mixture was prepared to obtain the following concentrations: • GFP-eIF2α—240 nM • ATP—900 μM or 30 μM • HEPES (pH=7.0)—50 mM • MgCl2—10 mM • MnCl2—5 mM.
The mixture was applied by adding 5 μL to each well of the plate. Thus, the final concentrations of the 15 μL reaction mixture were as follows: • GCN2—10 nM • unloaded tRNA—0.1 nM • GFP-eIF2α—80 nM • ATP—300 μM or 10 μM • HEPES (1 M, pH=7.0)—50 mM • MgCl2—10 mM • MnCl2—5 mM.
The reaction was allowed to proceed at room temperature for 30 min while shaking at 450 rpm.
The antibody mixture was prepared to obtain the following concentrations: • Na2EDTA·2H2O—40 mM, in TR-FRET Dilution Buffer (Life technologies) • Tb—anti-peIF2a antibodies—4 nM.
The mixture was applied by adding 15 μL to each well. The plate was then incubated at room temperature for 60 min while shaking at 450 rpm and then read using Tecan Spark reader using specific TR-FRET filters.
The analysis of the GFP/Tb fluorescence results was conducted with GraphPad Prism to determine IC50 for each of the example compounds using 4-parameter model: log(inhibitor) vs. response-variable slope. IC50 and K, values were calculated in the usual way. The assay was carried out between 1 and 15 times. The results in the table below are the mean results from replicate assays for the compound in question, where applicable.

GCN2 [3] = test: KINOMEscan competition binding assay, GCN2; set-up: species or system human; conditions: kinase GCN2
Method: (§1) Compounds were tested for activity against off-target kinases using the KINOMEscan™ screening platform, which employs a novel and proprietary active site-directed competition binding assay to quantitatively measure interactions between test compounds and hundreds of human kinases and disease relevant mutant variants.
(§2) For most assays, kinase-tagged T7 phage strains were grown in parallel in 24-well blocks in an E. coli host derived from the BL21 strain. E. coli were grown to log-phase and infected with T7 phage from a frozen stock (multiplicity of infection=0.4) and incubated with shaking at 32° C. until lysis (90-150 minutes). The lysates were centrifuged (6,000×g) and filtered (0.2 μm) to remove cell debris. The remaining kinases were produced in HEK-293 cells and subsequently tagged with DNA for qPCR detection. […] The liganded beads were blocked with excess biotin and washed with blocking buffer (SeaBlock (Pierce), 1% BSA, 0.05% Tween 20, 1 mM DTT) to remove unbound ligand and to reduce non-specific phage binding. […] Test compounds were prepared as 40× stocks in 100% DMSO and directly diluted into the assay. All reactions were performed in polypropylene 384-well plates in a final volume of 0.02 ml. […] The kinase concentration in the eluates was measured by qPCR.

off-target kinases = test: KINOMEscan kinase selectivity panel; assay type: binding, human; conditions: kinases other than those at <0.5%
Method: as §1, §2

MAP2K5 = molecular target: T2, MAP2K5 (Homo sapiens, UniProt Q13163); conditions: KINOMEscan, kinase MAP2K5; as reported in Nakamura et al (2018); cited from earlier work
T2 sequence (Q13163 1-448): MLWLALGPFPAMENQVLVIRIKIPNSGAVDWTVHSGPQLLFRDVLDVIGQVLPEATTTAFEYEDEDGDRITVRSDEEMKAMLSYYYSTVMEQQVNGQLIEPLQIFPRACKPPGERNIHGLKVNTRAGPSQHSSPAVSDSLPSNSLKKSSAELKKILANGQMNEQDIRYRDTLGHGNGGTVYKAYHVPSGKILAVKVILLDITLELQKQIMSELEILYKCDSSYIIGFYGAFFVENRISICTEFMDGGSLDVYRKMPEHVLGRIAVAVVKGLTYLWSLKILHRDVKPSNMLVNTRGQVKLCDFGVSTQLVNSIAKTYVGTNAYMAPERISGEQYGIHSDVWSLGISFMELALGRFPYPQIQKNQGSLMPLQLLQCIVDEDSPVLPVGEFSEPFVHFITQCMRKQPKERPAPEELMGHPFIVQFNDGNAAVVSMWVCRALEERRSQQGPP

ZAK = ZAK (Homo sapiens, UniProt Q9NYL2); conditions: KINOMEscan, kinase ZAK; as reported in Nakamura et al (2018); cited from earlier work
ZAK, sequence (Q9NYL2 whole entry): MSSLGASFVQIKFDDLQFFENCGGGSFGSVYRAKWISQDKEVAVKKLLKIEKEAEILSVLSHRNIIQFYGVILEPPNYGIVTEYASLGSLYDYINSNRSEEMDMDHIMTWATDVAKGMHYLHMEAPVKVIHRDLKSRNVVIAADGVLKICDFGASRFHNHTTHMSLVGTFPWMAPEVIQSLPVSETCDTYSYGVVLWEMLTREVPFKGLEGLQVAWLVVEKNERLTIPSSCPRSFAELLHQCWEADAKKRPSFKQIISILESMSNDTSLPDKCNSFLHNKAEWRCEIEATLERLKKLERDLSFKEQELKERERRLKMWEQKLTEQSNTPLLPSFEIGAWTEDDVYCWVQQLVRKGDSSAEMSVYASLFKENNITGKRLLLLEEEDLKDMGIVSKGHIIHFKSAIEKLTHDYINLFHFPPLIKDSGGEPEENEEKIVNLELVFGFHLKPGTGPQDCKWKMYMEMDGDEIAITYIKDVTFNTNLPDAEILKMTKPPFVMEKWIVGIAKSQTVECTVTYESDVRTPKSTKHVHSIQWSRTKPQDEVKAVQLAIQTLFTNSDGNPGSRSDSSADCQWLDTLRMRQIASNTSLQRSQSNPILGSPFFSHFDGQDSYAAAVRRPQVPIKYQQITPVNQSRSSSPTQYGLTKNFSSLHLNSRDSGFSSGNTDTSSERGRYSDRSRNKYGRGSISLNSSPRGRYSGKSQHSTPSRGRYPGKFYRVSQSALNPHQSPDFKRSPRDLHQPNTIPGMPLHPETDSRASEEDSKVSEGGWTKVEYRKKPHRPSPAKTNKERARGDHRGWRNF

STK10 = STK10 (Homo sapiens, UniProt O94804); conditions: KINOMEscan, kinase STK10; as reported in Nakamura et al (2018); cited from earlier work
STK10, sequence (O94804 whole entry): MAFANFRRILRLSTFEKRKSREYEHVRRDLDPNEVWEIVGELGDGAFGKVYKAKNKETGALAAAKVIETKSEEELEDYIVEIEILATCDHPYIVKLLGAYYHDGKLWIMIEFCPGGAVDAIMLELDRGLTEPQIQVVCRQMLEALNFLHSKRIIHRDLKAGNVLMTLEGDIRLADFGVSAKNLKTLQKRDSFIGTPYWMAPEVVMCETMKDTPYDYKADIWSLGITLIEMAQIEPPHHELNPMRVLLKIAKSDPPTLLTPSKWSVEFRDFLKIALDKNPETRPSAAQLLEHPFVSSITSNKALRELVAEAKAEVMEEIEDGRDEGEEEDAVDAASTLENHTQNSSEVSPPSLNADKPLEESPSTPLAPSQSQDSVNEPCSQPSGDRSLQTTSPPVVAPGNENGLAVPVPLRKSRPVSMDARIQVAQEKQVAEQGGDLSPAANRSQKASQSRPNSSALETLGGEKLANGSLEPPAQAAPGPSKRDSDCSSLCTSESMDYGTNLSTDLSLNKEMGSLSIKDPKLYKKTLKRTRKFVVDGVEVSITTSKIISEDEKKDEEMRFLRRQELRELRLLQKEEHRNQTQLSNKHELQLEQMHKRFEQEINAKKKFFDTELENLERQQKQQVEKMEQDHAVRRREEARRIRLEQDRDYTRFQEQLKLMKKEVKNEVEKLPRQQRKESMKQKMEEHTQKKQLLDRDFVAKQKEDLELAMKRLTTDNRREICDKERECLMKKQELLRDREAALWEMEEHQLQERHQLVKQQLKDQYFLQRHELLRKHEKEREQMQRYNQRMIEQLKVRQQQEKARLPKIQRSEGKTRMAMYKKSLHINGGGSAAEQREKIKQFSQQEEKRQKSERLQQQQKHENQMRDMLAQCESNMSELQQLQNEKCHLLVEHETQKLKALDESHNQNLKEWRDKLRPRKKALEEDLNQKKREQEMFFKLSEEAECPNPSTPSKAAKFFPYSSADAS

GCN2 [4] = conditions: KINOMEscan, kinase GCN2; as reported in Nakamura et al (2018); cited from earlier work
MEK5 = molecular target: T3, MEK5 (Homo sapiens, UniProt Q13163); test: KINOMEscan competition binding assay, MEK5; conditions: kinase MEK5
T3 construct: host or cells: E. coli BL21-derived (T7 phage) or HEK-293
T3 sequence (Q13163 1-448): T2 sequence (Q13163 1-448)
Method: as §1, §2

[5] = read-out: GCN2 IC50 (nM) 10 uM ATP, 10 uM ATP
[6] = read-out: GCN2 IC50 (nM) 300 uM ATP, 300 uM ATP
[7] = read-out: GCN2 Ki (nM) 10 uM ATP, 10 uM ATP
[8] = read-out: GCN2 Ki (nM) 300 uM ATP, 300 uM ATP

Compound | kinetic solubility (in words) [1] | solubility kinetic at 90 min [1] [µg/mL] | GCN2 inhibitory activity (in words) [2] | IC50 [2, 5] [nM] | IC50 [2, 6] [nM] | Ki [2, 7] [nM] | Ki [2, 8] [nM] | % Control (GCN2 [3]) [%] | Kinases with % Control <5% (off-target kinases) | % Control (MAP2K5) [%] | % Control (ZAK) [%] | % Control (STK10) [%] | % Control (GCN2 [4]) [%] | % Control (MEK5) [%]
COc1ncc(Cl)cc1S(=O)(=O)Nc1nccc(C#Cc2cnc(N)nc2)c1F [Example 1, N-{4-[2-(2-aminopyrimidin-5-yl)ethynyl]-3-fluoropyridin-2-yl}-5-chloro-2-methoxypyridine-3-sulfonamide] | good | 218 | strong | 7.2 | 103 | 2.3 | 1.6 | <0.5 | None |  |  |  |  | 
COc1ncc(Cl)cc1S(=O)(=O)Nc1ccc(F)c(C#Cc2cnc(N)nc2)c1F [Comp Ex 1, reference compound] |  | 4.7 |  | 5.9 | 59.2 | 1.9 | 0.9 |  |  | <5 | <5 | <5 | <0.5 | 
COc1ncc(Cl)cc1S(=O)(=O)Nc1nccc(C#Cc2cnc3[nH]ncc3c2)c1F [Example 3, 5-chloro-N-[3-fluoro-4-(2-{1H-pyrazolo[3,4-b]pyridin-5-yl}ethynyl)pyridin-2-yl]-2-methoxypyridine-3-sulfonamide] | good | 229 | strong | 3.5 | 26.5 | 1.1 | 0.6 | <0.5 |  |  |  |  |  | <5
